The numbers were not newly measured in patent US11433115B2, “Glycopeptide antibiotics liquid formulations and methods and uses thereof” (SOMERSET THERAPEUTICS, LLC, priority 2020, dated 2022), which cites them from elsewhere.

Usually LD50 stands for the dose expected to kill half of the subjects tested.

The test system of one data set is rats. The note with it: rat, in vivo.
The conditions of data set [1]: orally-dosed pigs, ˜382 mg/kg.
Another data set has as its system acylases. The note with it: via the action of acylases.

Read-outs that look alike come from different tables or passages of the source.

As for `CSCCC(NC(C)=O)C(=O)O` (racemic) [N-acetyl-DL-methionine], the LD50 in the data set on rats (ip) is 6700 mg/kg. `CC(=O)N[C@H](C)C(=O)O` [NADA, N-acetyl D-alanine]: under “animal reproduction studies”, the embryo-fetal toxicity entry was “caused fetal malformations”. For `CSCC[C@@H](NC(C)=O)C(=O)O` [NADM, N-acetyl-D-methionine], in data set [1], the “hydrolysis to D- and L-methionine” value was “only minimally hydrolyzed”; the “time to peak plasma concentration after dosing” value is 15 min. For the molecule `CSCC[C@H](NC(C)=O)C(=O)O` [NALM, N-acetyl-L-methionine], the LD50 in the data set on rats (iv) was 435 mg/kg. In addition, in the data set with acylases, the “hydrolysis to L-methionine and acetic acid” value is reported as “completely hydrolyzed”. In the case of polyethylene glycol [PEG 400], the embryo-fetal toxicity result (in vivo) is reported as “caused fetal malformations”.
